Reference: ChEMBL document CHEMBL4715742, “Design, synthesis and cytotoxic activities of novel 2,5-diketopiperazine derivatives” (Eur J Med Chem, 2016)

How the values were obtained:
U-937 [1] = assay: Induction of apoptosis in human U-937 cells assessed as apoptotic ratio at 0.015 uM measured after 24 hrs by annexinV/FITC-propidium iodide staining based flow cytometry (reference value: 3.7 +/- 0.3 %); assay type: functional
U-937 [2] = assay: Induction of apoptosis in human U-937 cells assessed as late apoptotic cells at 0.015 uM measured after 24 hrs by annexinV/FITC-propidium iodide staining based flow cytometry (reference value: 2.18 to 2.22 %); assay type: functional
HT-29 = assay: Cytotoxicity against human HT-29 cells assessed as reduction in cell viability measured after 72 hrs by CCK8 assay; assay type: functional, cell-based
U-937 [3] = assay: Induction of apoptosis in human U-937 cells assessed as apoptotic ratio at 0.015 uM measured after 48 hrs by annexinV/FITC-propidium iodide staining based flow cytometry (reference value: 5.2 +/- 0.2 %); assay type: functional
U-937 [4] = assay: Induction of apoptosis in human U-937 cells assessed as necrotic cells at 0.015 uM measured after 48 hrs by annexinV/FITC-propidium iodide staining based flow cytometry (reference value: 0.794 to 0.955 %); assay type: functional
U-937 [5] = assay: Induction of apoptosis in human U-937 cells assessed as viable cells at 0.015 uM measured after 48 hrs by annexinV/FITC-propidium iodide staining based flow cytometry (reference value: 93.7 to 94.2 %); assay type: functional; details: read-out: Activity
A549 = assay: Cytotoxicity against human A549 cells assessed as reduction in cell viability measured after 72 hrs by CCK8 assay; assay type: functional, cell-based
U-937 [6] = assay: Induction of apoptosis in human U-937 cells assessed as early apoptotic cells at 0.015 uM measured after 24 hrs by annexinV/FITC-propidium iodide staining based flow cytometry (reference value: 1.28 to 1.68 %); assay type: functional
HL-60 = assay: Cytotoxicity against human HL-60 cells assessed as reduction in cell viability measured after 72 hrs by CCK8 assay; assay type: functional, cell-based
DU-145 = assay: Cytotoxicity against human DU-145 cells assessed as reduction in cell viability measured after 72 hrs by CCK8 assay; assay type: functional, cell-based
U-937 [7] = assay: Induction of apoptosis in human U-937 cells assessed as necrotic cells at 0.015 uM measured after 24 hrs by annexinV/FITC-propidium iodide staining based flow cytometry (reference value: 1.12 to 1.48 %); assay type: functional
MCF7 = assay: Cytotoxicity against human MCF7 cells assessed as reduction in cell viability measured after 72 hrs by CCK8 assay; assay type: functional, cell-based
K562 = assay: Cytotoxicity against human K562 cells assessed as reduction in cell viability measured after 72 hrs by CCK8 assay; assay type: functional, cell-based
U-937 [8] = assay: Induction of apoptosis in human U-937 cells assessed as viable cells at 0.015 uM measured after 24 hrs by annexinV/FITC-propidium iodide staining based flow cytometry (reference value: 95 to 95.1 %); assay type: functional; details: read-out: Activity
U-937 [9] = assay: Induction of apoptosis in human U-937 cells assessed as late apoptotic cells at 0.015 uM measured after 48 hrs by annexinV/FITC-propidium iodide staining based flow cytometry (reference value: 3.27 to 3.41 %); assay type: functional
U-937 [10] = assay: Cytotoxicity against human U-937 cells assessed as reduction in cell viability measured after 72 hrs by CCK8 assay; assay type: functional, cell-based
U-937 [11] = assay: Induction of apoptosis in human U-937 cells assessed as early apoptotic cells at 0.015 uM measured after 48 hrs by annexinV/FITC-propidium iodide staining based flow cytometry (reference value: 1.78 to 1.88 %); assay type: functional
HeLa = assay: Cytotoxicity against human HeLa cells assessed as reduction in cell viability measured after 72 hrs by CCK8 assay; assay type: functional, cell-based
[12] = Homo sapiens, HT-29, 72 h, read-out: IC50
[13] = Homo sapiens, A549, 72 h, read-out: IC50
[14] = Homo sapiens, HL-60, 72 h, read-out: IC50
[15] = Homo sapiens, DU-145, 72 h, read-out: IC50
[16] = Homo sapiens, MCF7, 72 h, read-out: IC50
[17] = Homo sapiens, K562, 72 h, read-out: IC50
[18] = Homo sapiens, U-937, 72 h, read-out: IC50
[19] = Homo sapiens, HeLa, 72 h, read-out: IC50

| Compound | IC50 (HT-29; [12]) | IC50 (A549; [13]) | IC50 (HL-60; [14]) | IC50 (DU-145; [15]) | IC50 (MCF7; [16]) | IC50 (K562; [17]) | IC50 (U-937 [10]; [18]) | IC50 (HeLa; [19]) | IC50 (HT-29; ht-29) | IC50 (A549; a549) | IC50 (HL-60; hl-60) | IC50 (DU-145; du-145) | IC50 (MCF7; mcf7) | IC50 (K562; k562) | IC50 (U-937 [10]; u-937) | IC50 (HeLa; hela) | also measured |
| --- | --- | --- | --- | --- | --- | --- | --- | --- | --- | --- | --- | --- | --- | --- | --- | --- | --- |
| CC(C)(C)c1[nH]cnc1/C=c1\[nH]c(=O)/c(=C/c2ccccc2)[nH]c1=O [PLINABULIN] | 0.013 µM | 0.0055 µM | 0.0148 µM | 0.014 µM | 0.0126 µM | 0.0063 µM | 0.0068 µM | 0.0084 µM |  |  |  |  |  |  |  |  | Activity (U-937 [1]): 31.8%; Activity (U-937 [2]): 19.3%; Activity (U-937 [3]): 38.6%; Activity (U-937 [4]): 1.99%; viability at 0.015 µM (U-937 [5]): 58.3%; Activity (U-937 [6]): 11.7%; Activity (U-937 [7]): 1.13%; viability at 0.015 µM (U-937 [8]): 66.9%; Activity (U-937 [9]): 31.1%; Activity (U-937 [11]): 6.44% |
| C=CCn1c(=O)/c(=C/CCCCCCCC)[nH]c(=O)/c1=C/c1ccccc1OC |  |  |  |  |  |  |  |  | Not Active | Not Active | Not Active | Not Active | Not Active | Not Active | Not Active | Not Active |  |
| C=CCn1c(=O)/c(=C/CC)[nH]c(=O)/c1=C/c1ccccc1OC |  |  |  |  |  |  |  |  | Not Active | Not Active | Not Active | Not Active | Not Active | Not Active | Not Active | Not Active |  |
| C=CCn1c(=O)/c(=C/CCC)[nH]c(=O)/c1=C/c1ccccc1OC | 28.9 µM |  | 20.4 µM |  | 11.1 µM | 8.6 µM | 6.4 µM | 21.4 µM |  | Not Active |  | Not Active |  |  |  |  |  |
| C=CCn1c(=O)/c(=C/CCCCCCCCCCC)[nH]c(=O)/c1=C/c1cccc(OC)c1 |  |  |  |  |  |  |  |  | Not Active | Not Active | Not Active | Not Active | Not Active | Not Active | Not Active | Not Active |  |
| C=CCn1c(=O)/c(=C/CCCCCC)[nH]c(=O)/c1=C/c1ccccc1OC | 9.8 µM | 13.9 µM | 10.6 µM | 11.2 µM | 9.3 µM | 3.6 µM | 2.6 µM | 7 µM |  |  |  |  |  |  |  |  |  |
| C=CCn1c(=O)/c(=C/CCCCCCCC)[nH]c(=O)/c1=C/c1ccc(OC)cc1 | 10.8 µM | 15.8 µM | 26.5 µM | 7.9 µM | 10.1 µM | 5.6 µM | 3.7 µM | 8.1 µM |  |  |  |  |  |  |  |  |  |
| C=CCn1c(=O)/c(=C/CCCCC)[nH]c(=O)/c1=C/c1ccccc1OC | 7.4 µM | 8.7 µM | 13.4 µM | 10.7 µM | 6.9 µM | 2.6 µM | 1.9 µM | 5.7 µM |  |  |  |  |  |  |  |  |  |
| C=CCn1c(=O)/c(=C/CCC)[nH]c(=O)/c1=C/c1ccc(OC)cc1 | 8.3 µM | 12.3 µM | 6.2 µM | 13.1 µM | 9.3 µM | 2.9 µM | 2.2 µM | 7.1 µM |  |  |  |  |  |  |  |  |  |
| C=CCn1c(=O)/c(=C/CCCCCC)[nH]c(=O)/c1=C/c1ccc(OC)cc1 | 1.6 µM | 2 µM | 3.4 µM | 2.2 µM | 2.4 µM | 0.9 µM | 0.6 µM | 1.6 µM |  |  |  |  |  |  |  |  |  |
| C=CCn1c(=O)/c(=C/CCCC)[nH]c(=O)/c1=C/c1cccc(OC)c1 |  |  |  |  |  |  |  |  | Not Active | Not Active | Not Active | Not Active | Not Active | Not Active | Not Active | Not Active |  |
| C=CCn1c(=O)/c(=C/CCCC)[nH]c(=O)/c1=C/c1ccccc1OC | 3.3 µM | 4 µM | 0.5 µM | 4.3 µM | 3.1 µM | 1.4 µM | 0.9 µM | 2.4 µM |  |  |  |  |  |  |  |  |  |
| Cn1c(=O)/c(=C/c2ccccc2)[nH]c(=O)/c1=C/c1ccccc1 | 6.5 µM | 7.8 µM |  | 9.4 µM | 5.1 µM | 2.9 µM | 1.4 µM | 4.9 µM |  |  | Not Active |  |  |  |  |  |  |
